Measurements published in patent US20240245629A1, “USE OF ATOVAQUONE AND PROGUANIL FOR REDUCING STEROID USE, ALL-CAUSE HOSPITALIZATION, OR ADVANCED THERAPY USE IN A SUBJECT DIAGNOSED WITH INFLAMMATORY BOWEL DISEASE, CROHN'S DISEASE, OR ULCERATIVE COLITIS” (Elevaid Therapeutics, Inc., priority 2020, published 2024).
“Also recorded” adds a separate entry of the source. Where a name gives a salt, the structure may show the parent alone. Read-outs that look alike come from different tables or passages of the source.

Columns and labels:
[1] = test system: ulcerative colitis patient
[2] = test system: patients with IBD, CD, and UC; assay: Retrospective propensity-matched cohort study (TriNetX), secondary analysis: A/P vs HAV, HCQ, MES; type: in vivo, human; details: propensity score matched, within 1 year of exposure
Experimental: Using a multi-institutional database, after 1:1 propensity score matching, we identified adult all-cause IBD patients between 2000 and 2019. […] Outcomes were steroid use, hospitalization, or advanced therapy use within 1 year of exposure. The experiments were repeated in Crohn's disease (CD) and ulcerative colitis (UC) patient cohorts. […]
A retrospective cohort study was performed using a de-identified multi-institutional database with 80 contributing healthcare organizations (HCO), including over 113 million patients (TriNetX Research Network, Cambridge, Massachusetts, date of data access Dec. 7, 2023; IRB exempt). TriNetX regularly aggregates clinical data directly from participating HCOs, primarily in the United States, including extensive data quality and accuracy assessment. Institutional information relating to participating HCOs is also de-identified, however, a typical HCO includes a large academic healthcare center with prevalent capabilities for inpatient services, outpatient services, and specialty care services.
A second analysis was performed to identify all adult patients (aged≥18 years) diagnosed with IBD, including Crohn's disease (CD, ICD-10: K50) and/or ulcerative colitis (UC, ICD-10: K51), between Jan. 1, 2000, and Dec. 31, 2019. […] The index event for all groups was the time of the patient's first prescription.
If there were multiple prescriptions, the index event was defined as the date of the first prescription. Information on duration and dosage was not available.
The outcomes of steroid use (yes/no), hospitalization (yes/no), and advanced therapy use (yes/no) were chosen as they are generally regarded as surrogate markers for IBD activity. Steroid use was defined as a prescription for prednisone, methylprednisolone, or budesonide. All-cause hospitalization was used because TriNetX could not specify a cause for hospitalization. Advanced therapy use was defined as a prescription for adalimumab, certolizumab pegol, golimumab, infliximab, vedolizumab, ustekinumab, tofacitinib, azathioprine, mercaptopurine, or methotrexate. Information on the duration and dosage of outcome drugs was also not available.
This created a potential for bias in that many patients may experience one or more of the measured outcomes (steroid use, hospitalization, or advanced therapy use) within the first year of their diagnosis as standard of care. Indexing those patients to a time other than the time of their original diagnosis, for example, to a time when they received a prescription for a different medication, would mitigate that bias.
Comparators that would not only mitigate the index bias, but also address other potential biases, were specifically chosen. […] HAV is also frequently prescribed for travelers, and there happens to be a high degree of geographic overlap among hepatitis A and malaria-endemic regions.
We performed 1:1 greedy nearest neighbor propensity score matching (caliper of 0.1 standard deviations) to balance cohorts on age, sex, race, comorbid conditions (including cardiovascular, pulmonary, rheumatologic, and renal co-morbidities included in the Charlson Comorbidity Index), presence of prior hospitalization, and use of steroids and IBD advanced therapy (as defined above) to control for baseline disease severity and prior presence of any of the measured outcomes (Table 1, Supplemental Table 1). Differences between groups were calculated using either an independent t-test or a chi-square test as appropriate. Estimates of odds ratios (OR), and 95% confidence intervals (CI) were used to describe the outcome risks. P-values of α<0.05 were considered statistically significant.

murine colitis = details: mouse, in vivo, cited from earlier work
[3] = test system: patients with ulcerative colitis; details: small human trial; cited from earlier work
UC patients = details: 60 UC patients; cited from earlier work
[4] = cited from earlier work
[5] = test system: DSS-induced murine colitis; details: cited from earlier work
human neutrophils = details: by preventing up-regulation of CD11b; cited from earlier work
[6] = Crohn's disease, n = 381 per cohort, A/P vs HCQ
[7] = all-cause IBD, n = 947 per cohort, A/P vs HCQ
[8] = ulcerative colitis, n = 405 per cohort, A/P vs HCQ
[9] = Crohn's disease, n = 313 per cohort, A/P vs MES
[10] = all-cause IBD, n = 624 per cohort, A/P vs MES
[11] = ulcerative colitis, n = 260 per cohort, A/P vs MES

## CO[C@H]1/C=C/O[C@@]2(C)Oc3c(C)c(O)c4c(O)c(c5c(nc6cc(C)ccn65)c4c3C2=O)NC(=O)/C(C)=C\C=C\[C@H](C)[C@H](O)[C@@H](C)[C@@H](O)[C@@H](C)[C@H](OC(C)=O)[C@@H]1C [rifaximin]
[1]; 10-day course, 275 mg TID
  colitis symptoms: symptoms persisted

## CCN(CCO)CCCC(C)Nc1ccnc2cc(Cl)ccc12 (stereo not drawn) [HCQ, hydroxychloroquine]
[2]; [6]
  all-cause hospitalization, number of patients: 43
  steroid use, number of patients: 194
[2]; [7]
  advanced therapy use, number of patients: 277
  all-cause hospitalization, number of patients: 118
  steroid use, number of patients: 485
[2]; [8]
  advanced therapy use, number of patients: 99
  all-cause hospitalization, number of patients: 60
  steroid use, number of patients: 211
Murine colitis
  murine colitis and associated cancer: showed efficacy; also recorded: attenuate murine colitis
Murine colitis; listed as Hydroxychloroquine
  murine colitis and associated cancer: decrease the incidence
[3]
  efficacy vs placebo in ulcerative colitis: failed to demonstrate superiority over placebo

## Nc1ccc(O)c(C(=O)O)c1 [MES, mesalamine]
[2]; [9]
  all-cause hospitalization, number of patients: 53
  steroid use, number of patients: 162
[2]; [10]
  advanced therapy use, number of patients: 182
  all-cause hospitalization, number of patients: 92
  steroid use, number of patients: 307
[2]; [11]
  advanced therapy use, number of patients: 31
  all-cause hospitalization, number of patients: 47
  steroid use, number of patients: 111
[1]; 4.8 grams generic tablets daily, day 1
  therapeutic effect on colitis: no therapeutic effect
[1]; in vivo
  adverse event: moderate costochondral chest pain

## CCN(CC)CCCC(C)Nc1ccnc2cc(Cl)ccc12 (stereo not drawn) [chloroquine]
UC patients
  adverse events compared to sulfasalazine: fewer
  remission and response rates compared to sulfasalazine: similar

## C[C@]12C=CC(=O)C=C1CC[C@@H]1[C@@H]2C(=O)C[C@@]2(C)[C@H]1CC[C@]2(O)C(=O)CO [prednisone]
[1]; 40 mg daily, after 7 days
  colitis symptoms: no improvement

## [H]/N=C(\N/C(=N/[H])Nc1ccc(Cl)cc1)NC(C)C [Proguanil hydrochloride, 1-(4-chlorophenyl)-5-isopropyl-biguanide]
[4]
  solubility in water: sparingly soluble

## O=C1C(O)=C([C@H]2CC[C@H](c3ccc(Cl)cc3)CC2)C(=O)c2ccccc21 [Atovaquone, trans-2-[4-(4-chlorophenyl)cyclohexyl]-3-hydroxy-1,4-naphthalenedione]
[4]
  solubility in water: practically insoluble
[5]; by reducing mucosal neutrophil accumulation
  colitis (DSS-induced murine / experimental): attenuates; also recorded: promoted the resolution
[5]; mouse, in vivo
  S100A9 and CD11b expression on neutrophil surfaces: reduction
Human neutrophils
  human neutrophil chemotaxis: directly suppressed
